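Dose response: 5 concentrations. Exposure: 48 h. Format: 96-well plates. Endpoint: linear interpolation; highest concentration if not reached. The concentration for 50% growth inhibition is given as GI50. The concentration for full growth arrest is given as TGI.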
How the values were obtained:
Assay in all cases: NCI tumour cell line growth inhibition, 48 h
MDA-MB-435 = system: MDA-MB-435
MCF7 breast = system: MCF7 breast
U251 CNS = system: U251 CNS
NCI-H226 lung = system: NCI-H226 lung
A549 NSCLC = system: A549 NSCLC
SNB-75 CNS = system: SNB-75 CNS
M14 melanoma = system: M14 melanoma
EKVX NSCLC = system: EKVX NSCLC
A498 renal = system: A498 renal
SK-MEL-28 melanoma = system: SK-MEL-28 melanoma
SK-MEL-2 melanoma = system: SK-MEL-2 melanoma
MALME-3M melanoma = system: MALME-3M melanoma
NCI-H460 lung = system: NCI-H460 lung
NCI-H522 lung = system: NCI-H522 lung
HOP-92 NSCLC = system: HOP-92 NSCLC
NCI-H23 lung = system: NCI-H23 lung
HOP-62 NSCLC = system: HOP-62 NSCLC
SK-MEL-5 melanoma = system: SK-MEL-5 melanoma
UACC-62 melanoma = system: UACC-62 melanoma
UO-31 renal = system: UO-31 renal
CAKI-1 renal = system: CAKI-1 renal
PC-3 prostate = system: PC-3 prostate
HCT-116 colon = system: HCT-116 colon
KM12 colon = system: KM12 colon
ACHN renal = system: ACHN renal
786-0 renal = system: 786-0 renal
HS 578T breast = system: HS 578T breast
HCT-15 colon = system: HCT-15 colon
TK-10 renal = system: TK-10 renal
MDA-MB-231 breast = system: MDA-MB-231 breast
K-562 leukemia = system: K-562 leukemia
COLO 205 colon = system: COLO 205 colon
SNB-19 CNS = system: SNB-19 CNS
HL-60(TB) leukemia = system: HL-60(TB) leukemia
RPMI-8226 leukemia = system: RPMI-8226 leukemia
IGROV1 ovarian = system: IGROV1 ovarian
T-47D breast = system: T-47D breast
CCRF-CEM leukemia = system: CCRF-CEM leukemia
OVCAR-5 ovarian = system: OVCAR-5 ovarian
BT-549 breast = system: BT-549 breast
SF-268 CNS = system: SF-268 CNS
HT29 colon = system: HT29 colon
SK-OV-3 ovarian = system: SK-OV-3 ovarian
SF-539 CNS = system: SF-539 CNS
UACC-257 melanoma = system: UACC-257 melanoma
HCC-2998 colon = system: HCC-2998 colon
MOLT-4 leukemia = system: MOLT-4 leukemia
DU-145 prostate = system: DU-145 prostate
NCI/ADR-RES ovarian = system: NCI/ADR-RES ovarian
OVCAR-4 ovarian = system: OVCAR-4 ovarian
SN12C renal = system: SN12C renal
SR leukemia = system: SR leukemia
SW-620 colon = system: SW-620 colon
SF-295 CNS = system: SF-295 CNS
RXF 393 renal = system: RXF 393 renal
OVCAR-8 ovarian = system: OVCAR-8 ovarian

In the case of `COc1ccc(Cn2cc3c(c2-c2cc(OC)c(OC)c(OC)c2)CCc2c(CN4CCCC4)noc2-3)cc1`, the GI50 (MDA-MB-435) is reported as 0.239 µM, the TGI (MDA-MB-435) is reported as 0.595 µM and the GI50 (MCF7 breast) is reported as 0.325 µM. It also gave a TGI (MCF7 breast) of 20 µM, a GI50 (U251 CNS) of 0.543 µM and a TGI (U251 CNS) of 21.1 µM. It also gave a GI50 (NCI-H226 lung) of 2.07 µM, a TGI (NCI-H226 lung) of 30.3 µM and a GI50 (A549 NSCLC) of 1.33 µM. For the same compound, the TGI (A549 NSCLC) was over 100 µM, the GI50 (SNB-75 CNS) was 0.668 µM and the TGI (SNB-75 CNS) was 4.83 µM. For the same compound, the GI50 (M14 melanoma) was 0.582 µM, the TGI (M14 melanoma) was 10.6 µM and the GI50 (EKVX NSCLC) was 2.11 µM. The TGI (EKVX NSCLC) was over 100 µM, the GI50 (A498 renal) was 0.78 µM and the TGI (A498 renal) was 6.38 µM. The GI50 (SK-MEL-28 melanoma) was 11.5 µM, the TGI (SK-MEL-28 melanoma) was 29.6 µM and the GI50 (SK-MEL-2 melanoma) was 13.2 µM. It also gave a TGI (SK-MEL-2 melanoma) of 41.4 µM, a GI50 (MALME-3M melanoma) of 0.496 µM and a TGI (MALME-3M melanoma) of 21.4 µM. The GI50 (NCI-H460 lung) was 0.566 µM, the TGI (NCI-H460 lung) was 12.6 µM and the GI50 (NCI-H522 lung) was 0.472 µM. For the same compound, the TGI (NCI-H522 lung) was 18.9 µM, the GI50 (HOP-92 NSCLC) was 1.35 µM and the TGI (HOP-92 NSCLC) was 12 µM. The GI50 (NCI-H23 lung) was 2.8 µM, the TGI (NCI-H23 lung) was over 100 µM and the GI50 (HOP-62 NSCLC) was 1.41 µM. The TGI (HOP-62 NSCLC) was 32.6 µM, the GI50 (SK-MEL-5 melanoma) was 1.02 µM and the TGI (SK-MEL-5 melanoma) was 11.9 µM. For the same compound, the GI50 (UACC-62 melanoma) was 0.545 µM, the TGI (UACC-62 melanoma) was 22.7 µM and the GI50 (UO-31 renal) was 1.16 µM. The TGI (UO-31 renal) was 13.7 µM, the GI50 (CAKI-1 renal) was 0.451 µM and the TGI (CAKI-1 renal) was 20.2 µM. For the same compound, the GI50 (PC-3 prostate) was 0.636 µM, the TGI (PC-3 prostate) was over 100 µM and the GI50 (HCT-116 colon) was 0.466 µM. For the same compound, the TGI (HCT-116 colon) was 14.9 µM, the GI50 (KM12 colon) was 12.6 µM and the TGI (KM12 colon) was 81.2 µM. It also gave a GI50 (ACHN renal) of 0.634 µM, a TGI (ACHN renal) of 36.5 µM and a GI50 (786-0 renal) of 0.997 µM. The TGI (786-0 renal) was 21.9 µM, the GI50 (HS 578T breast) was 1.8 µM and the TGI (HS 578T breast) was 27.3 µM. The GI50 (HCT-15 colon) was 0.475 µM, the TGI (HCT-15 colon) was 12.1 µM and the GI50 (TK-10 renal) was 23.4 µM. The TGI (TK-10 renal) was over 100 µM, the GI50 (MDA-MB-231 breast) was 3.05 µM and the TGI (MDA-MB-231 breast) was 15.2 µM. It also gave a GI50 (K-562 leukemia) of 0.348 µM, a TGI (K-562 leukemia) of 16.6 µM and a GI50 (COLO 205 colon) of 0.941 µM. The TGI (COLO 205 colon) was 5.49 µM, the GI50 (SNB-19 CNS) was 0.78 µM and the TGI (SNB-19 CNS) was over 100 µM. It also gave a GI50 (HL-60(TB) leukemia) of 0.317 µM, a TGI (HL-60(TB) leukemia) of 1.28 µM and a GI50 (RPMI-8226 leukemia) of 1.27 µM. It also gave a TGI (RPMI-8226 leukemia) of 9.04 µM, a GI50 (IGROV1 ovarian) of 0.892 µM and a TGI (IGROV1 ovarian) of over 100 µM. For the same compound, the GI50 (T-47D breast) was 2.65 µM, the TGI (T-47D breast) was 48 µM and the GI50 (CCRF-CEM leukemia) was 0.727 µM. It also gave a TGI (CCRF-CEM leukemia) of over 100 µM, a GI50 (OVCAR-5 ovarian) of 3.2 µM and a TGI (OVCAR-5 ovarian) of over 100 µM. The GI50 (BT-549 breast) was 2.47 µM, the TGI (BT-549 breast) was 14.3 µM and the GI50 (SF-268 CNS) was 3.15 µM. For the same compound, the TGI (SF-268 CNS) was 29.8 µM, the GI50 (HT29 colon) was 0.398 µM and the TGI (HT29 colon) was 12.6 µM. For the same compound, the GI50 (SK-OV-3 ovarian) was 6.7 µM, the TGI (SK-OV-3 ovarian) was over 100 µM and the GI50 (SF-539 CNS) was 0.753 µM. The TGI (SF-539 CNS) was 4.46 µM, the GI50 (UACC-257 melanoma) was 17 µM and the TGI (UACC-257 melanoma) was 47.7 µM. For the same compound, the GI50 (HCC-2998 colon) was 1.84 µM, the TGI (HCC-2998 colon) was 14.6 µM and the GI50 (MOLT-4 leukemia) was 1.47 µM. It also gave a TGI (MOLT-4 leukemia) of 32.8 µM, a GI50 (DU-145 prostate) of 4 µM and a TGI (DU-145 prostate) of over 100 µM. It also gave a GI50 (NCI/ADR-RES ovarian) of 0.55 µM, a TGI (NCI/ADR-RES ovarian) of 11.2 µM and a GI50 (OVCAR-4 ovarian) of 21.4 µM. For the same compound, the TGI (OVCAR-4 ovarian) was over 100 µM, the GI50 (SN12C renal) was 4.43 µM and the TGI (SN12C renal) was 78 µM. For the same compound, the GI50 (SR leukemia) was 0.36 µM, the TGI (SR leukemia) was 13.5 µM and the GI50 (SW-620 colon) was 0.54 µM. The TGI (SW-620 colon) was 80.3 µM, the GI50 (SF-295 CNS) was 0.461 µM and the TGI (SF-295 CNS) was 12.4 µM. It also gave a GI50 (RXF 393 renal) of 0.893 µM, a TGI (RXF 393 renal) of 7.96 µM and a GI50 (OVCAR-8 ovarian) of 3.27 µM. For the same compound, the TGI (OVCAR-8 ovarian) was 78.9 µM.

Source: PubChem BioAssay (NCI)
